This experiment is filed under the species Rattus norvegicus. As to the kind of experiment: Calcium antagonistic activity assessed against calcium-induced constriction of potassium-depolarized rat aorta. In kind it is functional. The settings on record: for Kb: Rattus norvegicus, Aorta, read-out: pA2 (converted).

In the case of `O=C(CCCCCN1CCN(c2ccccc2)CC1)N[C@H]1c2ccccc2SC[C@@H]2CCCC[C@H]21`, the Kb is 30.2 nM.
Same read-out and setting: the result for `O=C(CCN1CCN(c2ccccc2)CC1)N[C@H]1c2ccccc2SC[C@@H]2CCCC[C@H]21` reads 41.7 nM; that for `Cc1ccc(N2CCN(CCCC(=O)N[C@H]3c4ccccc4SC[C@@H]4CCCC[C@H]43)CC2)cc1`, 70.8 nM; that for `O=C(CCCN1CCN(C/C=C/c2ccccc2)CC1)N[C@H]1c2ccccc2SC[C@@H]2CCCC[C@H]21`, 75.9 nM.
Still for that read-out and setting: the result for `O=C(CN1CCN(c2ccccc2)CC1)N[C@H]1c2ccccc2SC[C@@H]2CCCC[C@H]21` reads 105 nM.
Still for that read-out and setting: the result for `O=C(CCCN1CCN(c2ccc(F)cc2)CC1)N[C@H]1c2ccccc2OC[C@@H]2CCCC[C@H]21` reads 138 nM.
With `O=C(CCCN1CCN(Cc2ccc([N+](=O)[O-])cc2)CC1)N[C@H]1c2ccccc2SC[C@@H]2CCCC[C@H]21`, the Kb was 19.1 nM.
Still for that read-out and setting: the result for `O=C(CCCN1CCN(c2ccc(F)cc2)CC1)N[C@@H]1c2ccccc2SC[C@@H]2CCCC[C@@H]21` reads 18.6 nM; that for `O=C(CCCN1CCN(C(c2ccccc2)c2ccccc2)CC1)N[C@H]1c2ccccc2SC[C@@H]2CCCC[C@H]21`, 40.7 nM.
Still for that read-out and setting: the result for `O=C(CCCN1CCN(Cc2ccccc2)CC1)N[C@H]1c2ccccc2SC[C@@H]2CCCC[C@H]21` reads 15.8 nM.
The same measure, in the same setting: the result for `O=C(CCCN1CCN(c2ccc(O)cc2)CC1)N[C@H]1c2ccccc2SC[C@@H]2CCCC[C@H]21` reads 69.2 nM; that for `O=C(CCCN1CCN(c2ccc(Cl)cc2)CC1)N[C@H]1c2ccccc2SC[C@@H]2CCCC[C@H]21`, 15.1 nM.
On to `O=C(CCCN1CCN(c2ccc(F)cc2)CC1)N[C@H]1c2ccccc2SC[C@@H]2CCCC[C@H]21`, for which the Kb is 6.92 nM.
Consider `O=C(CCCN1CCN(c2ccc(F)cc2)CC1)N[C@H]1c2cc(Cl)ccc2SC[C@@H]2CCCC[C@H]21`, for which the Kb was 81.3 nM.
On the same count and under the same terms, the result for `O=C(CCCN1CCN(c2ccc(F)cc2)CC1)N[C@H]1c2ccccc2SC[C@@H]2CCCC[C@@H]21` reads 7.08 nM.
Same read-out and setting: with `O=C(CCCN1CCN(Cc2cccc(F)c2)CC1)N[C@H]1c2ccccc2SC[C@@H]2CCCC[C@H]21` the figure was 30.2 nM.
Broadly, the pA2 is a measure of antagonist potency on a negative log scale. Regarding `O=C(CCCN1CCN(c2ccccc2)CC1)N[C@H]1c2ccccc2SC[C@@H]2CCCC[C@H]21.O=C(O)C(=O)O`, the pA2 is 7.68.
As for `COc1ccccc1N1CCN(CCCC(=O)N[C@H]2c3ccccc3SC[C@@H]3CCCC[C@H]32)CC1`, the Kb is 46.8 nM.
On the same count and under the same terms, the result for `O=C(CCCN1CCN(c2cccc3ccccc23)CC1)N[C@H]1c2ccccc2SC[C@@H]2CCCC[C@H]21` reads 57.5 nM.
On to `O=C(CCCN1CCN(Cc2ccc(F)cc2)CC1)N[C@H]1c2ccccc2SC[C@@H]2CCCC[C@H]21`, for which the Kb is 57.5 nM.
As for `O=C(CCCN1CCN(C(=O)c2ccccc2)CC1)N[C@H]1c2ccccc2SC[C@@H]2CCCC[C@H]21`, the Kb is 97.7 nM.
Consider `O=C(CCCN1CCN(c2ccc(F)cc2)CC1)N[C@H]1c2cc(F)ccc2SC[C@@H]2CCCC[C@H]21`, for which the Kb is 77.6 nM.
Same read-out and setting: the result for `O=C(CCCN1CCN(Cc2ccc(O)cc2)CC1)N[C@H]1c2ccccc2SC[C@@H]2CCCC[C@H]21` reads 70.8 nM; that for `O=C(CCCCN1CCN(c2ccccc2)CC1)N[C@H]1c2ccccc2SC[C@@H]2CCCC[C@H]21`, 28.2 nM; that for `O=C(CCCN1CCN(c2ccc(C(F)(F)F)cc2)CC1)N[C@H]1c2ccccc2SC[C@@H]2CCCC[C@H]21`, 8.91 nM.
Still for that read-out and setting: with `CN(C(=O)CCN1CCN(c2ccccc2)CC1)[C@H]1c2ccccc2SC[C@@H]2CCCC[C@H]21` the figure was 148 nM; with `COc1ccc(N2CCN(CCCC(=O)N[C@H]3c4ccccc4SC[C@@H]4CCCC[C@H]43)CC2)cc1`, 25.1 nM; with `O=C(CCCN1CCN(c2cccc(F)c2)CC1)N[C@H]1c2ccccc2SC[C@@H]2CCCC[C@H]21`, 15.1 nM.
Turning to `O=C(CCCN1CCN(C2CCCCC2)CC1)N[C@H]1c2ccccc2SC[C@@H]2CCCC[C@H]21`, the Kb is 45.7 nM.
The same measure, in the same setting: with `COc1ccc(CN2CCN(CCCC(=O)N[C@H]3c4ccccc4SC[C@@H]4CCCC[C@H]43)CC2)cc1` the figure was 56.2 nM.
On the same count and under the same terms, the result for `COc1ccc2c(c1)[C@H](NC(=O)CCCN1CCN(c3ccc(F)cc3)CC1)[C@@H]1CCCC[C@H]1CS2` reads 17 nM.
`c1ccc(N2CCN(CCCN[C@H]3c4ccccc4SC[C@@H]4CCCC[C@H]43)CC2)cc1`: the Kb is 158 nM.
Still for that read-out and setting: the result for `O=C(CCCN1CCN(Cc2ccc(Cl)cc2)CC1)N[C@H]1c2ccccc2SC[C@@H]2CCCC[C@H]21` reads 26.9 nM; that for `O=C(CCCN1CCN(c2ccc(F)cc2)CC1)N[C@@H]1c2ccccc2SC[C@@H]2CCCC[C@H]21`, 26.9 nM; that for `Cc1ccc2c(c1)[C@H](NC(=O)CCCN1CCN(c3ccc(F)cc3)CC1)[C@@H]1CCCC[C@H]1CS2`, 141 nM.
Same read-out and setting: the result for `O=C(CCCN1CCN(CCc2ccccc2)CC1)N[C@H]1c2ccccc2SC[C@@H]2CCCC[C@H]21` reads 72.4 nM.
As to `O=C(CCCN1CCN(c2ccc(F)cc2)CC1)N[C@H]1c2ccccc2[S+]([O-])C[C@@H]2CCCC[C@H]21` (stereo in doubt; 48), the pA2 was 6.48.
As for `O=C(CCCN1CCN(c2ccc(F)cc2)CC1)N[C@H]1c2ccccc2[S+]([O-])C[C@@H]2CCCC[C@H]21` (stereo in doubt; 49), the Kb is 324 nM.

Source of the values: ChEMBL document CHEMBL1125238, “A new class of calcium antagonists. Synthesis and biological activity of 11-[(omega-aminoalkanoyl)amino]-6,6a,7,8,9,10,10a,11-octahydrodibenzo [b,e]thiepin derivatives” (J Med Chem, 1991).
